Experimental data as given in publication PMC7119052 (Bioorganic & Medicinal Chemistry, 2005).

Tests used:
[1] = target: T1, CypA (Homo sapiens, UniProt P62937); experiment: biochemical
[2] = target: T1, CypA; experiment: SPR-based binding affinity assay; conditions: pH 7.4
[3] = test system: mouse spleen cells induced by Con A; experiment: Proliferation of mouse spleen cells induced by Con A; assay type: cell-based; conditions: 72 h, read-out: Inhibitory rate (%)

T1 sequence (P62937 whole entry): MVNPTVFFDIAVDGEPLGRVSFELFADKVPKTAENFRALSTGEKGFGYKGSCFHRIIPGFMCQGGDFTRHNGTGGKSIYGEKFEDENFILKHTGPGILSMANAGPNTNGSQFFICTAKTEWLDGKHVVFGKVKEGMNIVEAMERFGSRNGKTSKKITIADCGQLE

| SMILES | % inhibition at 10 μM [1] [%] | Kd [2] [µM] | further results |
| --- | --- | --- | --- |
| Cc1noc(NS(=O)(=O)c2ccc(NC(=O)c3cc(-c4cccc(F)c4)nc4ccccc34)cc2)c1C [Compound 16a, 4-(2-(3-Fluorophenyl)-quinoline-4-carboxamido)-N-(3,4-dimethyl-isoxazol-5-yl) benzenesulfonamide] | 18.0 | 10.2 | – |
| Cc1noc(NS(=O)(=O)c2ccc(NC(=O)c3cc(-c4ccc(Br)cc4)nc4ccccc34)cc2)c1C [Compound 16c, 4-(2-(4-Bromophenyl)-quinoline-4-carboxamido)-N-(3,4-dimethyl-isoxazol-5-yl) benzenesulfonamide] | 10.0 | 4.11 | – |
| Cc1noc(NS(=O)(=O)c2ccc(NC(=O)c3cc(-c4ccccc4Br)nc4ccccc34)cc2)c1C [Compound 16d, 4-(2-(2-Bromophenyl)-quinoline-4-carboxamido)-N-(3,4-dimethyl-isoxazol-5-yl) benzenesulfonamide] | 15.0 | 223 | – |
| Cc1noc(NS(=O)(=O)c2ccc(NC(=O)c3cc(-c4ccncc4)nc4ccccc34)cc2)c1C [Compound 16e, 4-(2-Pyridin-4-yl-quinoline-4-carboxamido)-N-(3,4-dimethyl-isoxazol-5-yl) benzenesulfonamide] | 40.0 | 10.6 | – |
| Cc1noc(NS(=O)(=O)c2ccc(NC(=O)c3cc(-c4cccs4)nc4ccccc34)cc2)c1C [Compound 16f, 4-(2-Thiophen-2-yl-quinoline-4-carboxamido)-N-(3,4-dimethyl-isoxazol-5-yl) benzenesulfonamide] | 30.0 | 91.3 | – |
| Cc1noc(NS(=O)(=O)c2ccc(NC(=O)c3cc(C4CCCCC4)nc4ccccc34)cc2)c1C [Compound 16g, 4-(2-Cyclohexanyl-quinoline-4-carboxamido)-N-(3,4-dimethyl-isoxazol-5-yl) benzenesulfonamide] | – | 1.79 | – |
| Cc1noc(NS(=O)(=O)c2ccc(NC(=O)c3cc(-c4cccc(Br)c4)nc4ccc(F)cc34)cc2)c1C [Compound 16i, 4-(2-(3-Bromophenyl)-6-fluoro-quinoline-4-carboxamido)-N-(3,4-dimethyl-isoxazol-5-yl) benzenesulfonamide] | 32.0 | 2.25 | – |
| O=C(Nc1ccc(S(=O)(=O)Nc2cnc3ccccc3n2)cc1)c1cc(-c2cccc(Br)c2)nc2ccccc12 [Compound 16j, 4-(2-(3-Bromophenyl)-quinoline-4-carboxamido)-N-quinoxalin-2-yl benzenesulfonamide] | 36.0 | 3.13 | – |
| Cc1noc(NS(=O)(=O)c2ccc(NC(=O)c3ccnc(-c4ccc(Br)cc4)c3)cc2)c1C [Compound 16l, 4-(2-(4-Bromophenyl)-pyridine-4-carboxamido)-N-(3,4-dimethyl-isoxazol-5-yl) benzenesulfonamide] | – | 89.5 | – |
| Cc1noc(NS(=O)(=O)c2ccc(NC(=O)c3ccnc(-c4ccccc4)c3)cc2)c1C [Compound 16m, 4-(2-Phenyl-pyridine-4-carboxamido)-N-(3,4-dimethyl-isoxazol-5-yl) benzenesulfonamide] | – | 14.5 | – |
| Cc1noc(NS(=O)(=O)c2ccc(NC(=O)c3ccnc(-c4ccc(Cl)cc4)c3)cc2)c1C [Compound 16n, 4-(2-(4-Chlorophenyl)-pyridine-4-carboxamido)-N-(3,4-dimethyl-isoxazol-5-yl) benzenesulfonamide] | – | 1.86 | – |
| Cc1noc(NS(=O)(=O)c2ccc(NC(=O)c3ccnc(-c4ccc(F)cc4)c3)cc2)c1C [Compound 16o, 4-(2-(4-Fluorophenyl)-pyridine-4-carboxamido)-N-(3,4-dimethyl-isoxazol-5-yl) benzenesulfonamide] | 26.0 | 42.4 | – |
| Cc1ccccc1-c1cc(C(=O)Nc2ccc(S(=O)(=O)Nc3onc(C)c3C)cc2)ccn1 [Compound 16p, 4-(2-(2-Methylphenyl)-pyridine-4-carboxamido)-N-(3,4-dimethyl-isoxazol-5-yl) benzenesulfonamide] | – | 7.61 | – |
| Cc1ccnc(NS(=O)(=O)c2ccc(NC(=O)c3ccnc(-c4ccccc4C)c3)cc2)n1 [Compound 16q, 4-(2-(2-Methylphenyl)-pyridine-4-carboxamido)-N-(4-methyl-pyrimidin-2-yl) benzenesulfonamide] | – | 340 | – |
| O=C(Cc1ccc(Cl)cc1Cl)Nc1ccc(S(=O)(=O)Nc2cnc3ccccc3n2)cc1 [Compound 17a, 4-(2,4-Dichlorophenylacetamido)-N-quinoxalin-2-yl benzenesulfonamide] | – | 37.7 | – |
| O=C(Nc1ccc(S(=O)(=O)Nc2cnc3ccccc3n2)cc1)c1ccccc1 [Compound 17b, 4-Benzamido-N-quinoxalin-2-yl benzenesulfonamide] | 5.6 | 23.4 | – |
| O=C(CCc1ccccc1)Nc1ccc(S(=O)(=O)Nc2cnc3ccccc3n2)cc1 [Compound 17c, 4-(3-Phenyl-propionamido)-N-quinoxalin-2-yl benzenesulfonamide] | – | 1.06 | – |
| Cc1noc(NS(=O)(=O)c2ccc(NC(=O)Cc3ccc(Cl)cc3)cc2)c1C [Compound 17d, 4-(4-Chlorophenylacetamido)-N-(3,4-dimethyl-isoxazol-5-yl) benzenesulfonamide] | – | 0.35 | – |
| COC(=O)c1cc(Cc2ccc(NCc3ccccc3)c(C(=O)OC)c2)ccc1NCc1ccccc1 [Compound 18g, 6,6′-Bis-benzylamino-3,3′-methanediyl-di-benzoic acid dimethyl ester] | – | – | IC50 [1]: 6.23 µM; inhibition at 1 µM [3]: 1.2 ± 6.41%; inhibition at 10 µM [3]: 7.46 ± 4.13%; inhibition at 100 µM [3]: 28.8 ± 3.39% |
